In US9855229B2, “Treatment of respiratory disorders using ROR-gamma inhibitors” (Glenmark Pharmaceuticals S.A., priority 2015, dated 2018):

Assays:
[1] = target: human RORγ receptor (GST-tagged ROR gamma ligand binding domain) (Homo sapiens (Human), UniProt P51449); assay: TR-FRET assay for ROR gamma (Lantha Screen co-activator peptide recruitment); assay type: biochemical; conditions: 10 nM GST-tagged ROR gamma LBD, read-out: IC50 value for inhibiting human RORγ receptor activity
Excerpt: The compounds described herein were screened for RORγ inhibitor activity using the TR-FRET assay by Lantha Screen as described in JBC 2011, 286, 26: 22707-10; and Drug Metabolism and Disposition 2009, 37, 10: 2069-78
TR-FRET Assay for ROR Gamma:
The assay is based on the principle that binding of the agonist to the RORγ causes a conformational change around helix 12 in the ligand binding domain, resulting in higher affinity for the co-activator peptide. The Fluorescein-D22 co-activator peptide used in the assay is recruited in the absence of a ligand. Binding of the co-activator peptide, causes an increase in the TR-FRET signal while binding of an inhibitor decreases the recruitment of the co-activator peptide, causing a decrease in the TR-FRET signal compared to a control with no test compound. The assay was performed using a two-step procedure, pre-incubation step with the test compound followed by the detection step on addition of the anti-GST tagged terbium (Tb) and fluorescein tagged fluorophores as the acceptor.
Test compounds or reference compounds such as T0901317 (Calbiochem) were dissolved in dimethylsulfoxide (DMSO) to prepare 10.0 mM stock solutions and diluted to the desired concentration. The final concentration of DMSO in the reaction was 4% (v/v). The assay mixture was prepared by mixing 10 nM of the GST-tagged ROR gamma ligand binding domain (LBD) in the assay buffer containing 25 mM HEPES (pH 7.4), 100 mM NaCl, 5 mM DTT and 0.01% BSA with or without the desired concentration of the test compound. The reaction was incubated at 22° C. for 1 hour. The pre-incubation step was terminated by addition of the detection mixture containing 300 nM Fluorescein-D22 co-activator peptide and 10 nM lantha screen Tb-anti GST antibody into the reaction mixture. After shaking for 5 minutes the reaction was further incubated for 1 hour at room temperature and read at 4° C. on an Infinite F500 reader as per the kit instructions (Invitrogen). The inhibition by test compound was calculated based on the TR-FRET ratio of 520/495. The activity was calculated as a percent of the control reaction. IC50 values were calculated from dose response curve by nonlinear regression analysis using GraphPad Prism software.

[2] = tested on: anti CD2/3/28 stimulated IL-17 release from COPD lung BAL cells; assay: Ex-vivo IL-17 inhibition from BAL cells of COPD patients; assay type: cell-based, human; conditions: for IC50: average over patients, 72 hrs
Description: (§1) Ex vivo effect of ROR γt inhibitors were evaluated on tissue samples of eligible subjects suffering from moderate (Stage II), severe (Stage III) to very severe (Stage IV) COPD classified in accordance with GOLD guidelines.
Flexible fiber optic bronchoscopy was performed on 6 eligible subjects (COPD patients) after written valid consent and lignocaine nebulization. Bronchoscope was wedged into bronchus, pre-warmed sterile saline solution instilled into the lobes and bronchoalveolar lavage was collected in sterile container on ice. The filtrate was passed through the cell strainer for removing the particulate matter and centrifuged at 2000 rpm for 10 mins. The BAL cell pellet obtained was further treated with ACK buffer to lyse out the RBCs. Isolated BAL cells per suspended in 10% FBS containing medium.
(§2) PBMCs or BAL cells were seeded at 1-2×10^5 cells per well onto 96-well flat bottomed plates pre-coated with 2 μg/ml of CD2 antibody (LEAF Purified, Biolegend, #300212) and 10 μg/ml of CD3 antibody (Purified NA/LE, BD, #555329). This was followed by the pre-treatment with compounds (concentrations ranging from 1 nM to 10 uM) and roflumilast for one hour prior to addition of 2 μg/ml of soluble CD28 antibody (LEAF purified, Biolegend, #302914). BAL cells and PBMC were then incubated at 37° C. for 72 hrs in 5% CO2 incubator, after which supematants were collected and stored at −80° C. prior to cytokine analysis.
(§3) Supematants were analysed for IL-17A using either the High Sensitivity ELISA (eBioscience), or the LEGEND MAX™ ELISA kit (Biolegend) according to the manufacturer's instructions.
(§4) IL-17 cytokine concentrations in the supematants were determined from the standard curve plot. Percent inhibition for each set treated with compound was calculated using the formula: Percent inhibition={100−(pg/ml of test compound/pg/ml of control×100)}. IC50 values were calculated from the dose response curves by nonlinear regression analysis using GraphPad Prism Software. Results

[3] = tested on: anti CD2/3/28 stimulated IL-17 release from PBMC of COPD patients; assay: Ex-vivo IL-17 inhibition from PBMCs of COPD patients; assay type: cell-based, human; conditions: for IC50: average over patients, 72 hrs
Description: as §1
Blood was collected in a heparin tube prior to bronchoscopy. 1:1 diluted blood was layered over Histopaque and centrifuged at 400 g, 30 min, at room temperature. The PBMC layer at the interface was aspirated and washed twice with PBS prior to re-suspension in 10% FBS containing media.
as §2, §3, §4

[4] = tested on: cigarette smoke (CS) induced pulmonary inflammation model in male C57BL6/J mice; assay: Cigarette smoke (CS) induced pulmonary inflammation model, 7 days exposure, BAL cell count; assay type: in vivo; conditions: i.n., od, 7 days CS exposure; for CS mediated increase in macrophages in BALf / CS mediated increase in neutrophils in BALf / CS mediated increase in total leukocyte count (TLC) in BALf: BAL 20 hours after last smoke exposure
Description: Male C57BL/6 mice were exposed alternately to cigarette smoke (10 Kentucky Research Cigarettes 3R4F) and fresh air for 50 minutes (10 seconds cigarette smoke+5 seconds air for 19 puffs per cigarette) twice daily for 7 days in a whole-body box exposure system (SIU24, ProMech Lab Holding AB, Sweden). Test compounds were sonicated in 1×PBS containing 0.005% tween 80. For localized delivery to lung, animals were administered vehicle or test compounds intranasally (i.n.) (40 μl per animal) under isoflurane anaesthesia, once or twice in a day, 1 hour before smoke exposure. Non-drug-treated air and smoked control animals were given vehicle before exposure to fresh air or smoke as appropriate. Animals were sacrificed 20 hours after the last smoke exposure and subjected to bronchoalveolar lavage (BAL). Total and differential BAL cell count was performed.
BAL was performed at approximately 20 hours after final smoke exposure. Animals were euthanized with an overdose of urethane, trachea was exposed and BAL was performed 4 times using 0.3 ml PBS. All aspirates of BAL were pooled and total numbers of cells were determined using a hemocytometer. BALf was centrifuged. The cell pellet collected after centrifugation was resuspended in 15 μL serum and used for preparation of smears.
For cell differentials, slides were stained with Leishman's stain and a differential cell count of 500 cells based on standard morphology was performed manually.
Total and differential cell count was determined in the BALf. The results were expressed as percent inhibition of leukocytes in BALf. The change in the treatments was statistically evaluated by ANOVA followed by Dunnett's multiple comparisons test.

human RORγ receptor (GST-tagged ROR gamma ligand binding domain), sequence (P51449 269-508): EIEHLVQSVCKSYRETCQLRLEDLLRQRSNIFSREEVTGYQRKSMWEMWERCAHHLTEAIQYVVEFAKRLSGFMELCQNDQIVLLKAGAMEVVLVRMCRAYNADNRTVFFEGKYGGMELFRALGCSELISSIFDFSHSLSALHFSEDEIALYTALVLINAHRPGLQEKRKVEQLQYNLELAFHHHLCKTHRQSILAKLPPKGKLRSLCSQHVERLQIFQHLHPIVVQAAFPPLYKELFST

CCn1c(C(C)(C)Oc2ccc(F)cc2F)nc2cc(NC(=O)Cc3ccc(S(=O)(=O)CC)cc3)ccc21 [Compound 1]
IC50 [1]: 4.26 nM | IC50 ([2]; Homo sapiens): 350 nM | IC50 ([3]; Homo sapiens): 147 nM

CCS(=O)(=O)c1ccc(CC(=O)Nc2ccc(OC(C)(C)c3ccc(Cl)cc3Cl)cc2)cc1 [Compound 3]
IC50 [1]: 5.52 nM | inhibition of pulmonary inflammation induced by cigarette smoke [4]: significant inhibition | CS mediated increase in macrophages in BALf [4]: significantly prevented | CS mediated increase in neutrophils in BALf [4]: significantly prevented | CS mediated increase in total leukocyte count (TLC) in BALf [4]: significantly prevented

CCS(=O)(=O)c1ccc(CC(=O)Nc2ccc(OC(C)(C)c3ccc(Cl)cc3Cl)c(F)c2)cc1 [Compound 4]
IC50 [1]: 5.99 nM

CCS(=O)(=O)c1ccc(CC(=O)Nc2ccc(C#CC(C)(C)Oc3ccc(Cl)c(F)c3)cc2)cc1 [Compound 5]
IC50 [1]: 17.4 nM

CCS(=O)(=O)c1ccc(CC(=O)Nc2ccc(OC3(c4ccc(Cl)cc4Cl)CCOCC3)cc2)cc1 [Compound 9]
IC50 [1]: 18.4 nM | inhibition of pulmonary inflammation induced by cigarette smoke [4]: significant inhibition | CS mediated increase in macrophages in BALf [4]: significantly prevented | CS mediated increase in neutrophils in BALf [4]: significantly prevented | CS mediated increase in total leukocyte count (TLC) in BALf [4]: significantly prevented | IC50 ([2]; Homo sapiens): 2390 nM | IC50 ([3]; Homo sapiens): 360 nM

CCS(=O)(=O)c1ccc(CC(=O)Nc2ccc(OC3(c4ccc(Cl)cc4Cl)CCOCC3)c(F)c2)cc1 [Compound 10]
IC50 [1]: 16.2 nM | IC50 [2]: 720 nM | IC50 [3]: 367 nM

CCS(=O)(=O)c1ccc(CC(=O)Nc2ccc(OC(C)(C)c3ncc(Cl)cc3Cl)c(F)c2)cc1 [Compound 11]
IC50 [1]: 25.7 nM | IC50 [2]: 2700 nM | IC50 [3]: 84 nM

O=C(Nc1c(Cl)cncc1Cl)c1ccc(OC(F)F)c(OCC2CC2)c1 [Roflumilast, reference compound]
inhibition at 10 µM ([2]; Homo sapiens, at 10 μM, read-out: BAL IL-17 percent inhibition): 6.75% | inhibition at 10 µM ([3]; Homo sapiens, at 10 μM, read-out: PBMC IL-17 percent inhibition): 20.2%
